Assay results reported in US6670407B2, “Biofunctional polymers prepared in supercritical fluid” (University of Nottingham, priority 1997, dated 2003).

Assay: hydrogen peroxide decomposition assay of catalase recovered from PLGA matrices
Assay type: biochemical
Settings: catalase removed from PLGA matrices by degradation of the polymer; processed in supercritical CO2 at 45° C. and 200 bar, 30 minutes
Description: In a specific example of the use of the invention particles of the protein catalase (ca mean diameter 50 micron) are mixed with the biodegradable polymer poly(DL-lactide-co-glycolide) (PLGA) as per example 3, in the presence of super critical CO2 at 45° C. and 200 bar. After agitation for 30 minutes, the autoclave was depressurized leading to solid dispersions of a monolith form, in which catalase particles are intimately mixed with the biodegradable polymer. FIGS. 3a) and 3b) are scanning electron microscopy images at respective higher and lower magnifications of 10 micron (particles and micropores visible) and 50 micron (particles embedded in “channels”).
Removal of the catalase from the matrices by degradation of the polymer enabled the activity of the enzyme to be quantified using a hydrogen peroxide decomposition assay.

- activity of the enzyme after SCF processing: lost no appreciable activity
Substance: catalase
